This note sets out measurements from patent publication US20240417410A1, “TRICYCLIC COMPOUNDS FOR THE TREATMENT OF CANCER” (Hoffmann-La Roche Inc., priority 2023, published 2024).

Test [1] concerns AGS cells (KRAS G12D). The test can be described thus: Cell viability assay (Cell Counting Kit-8, 3-day). The format is cell-based, human. To be noted: Homo sapiens, 72 h, 72 hrs incubation. A digest of the protocol:
(§1)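 After overnight attachment, cells received compounds (0.5% DMSO) for 72 hrs; viability was then quantified with CCK-8, reading OD450 minus OD650, and IC50 values were obtained from a 4-parameter concentration-response fit.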
In general terms: Tetrazolium assays rely on reduction of a dye to a coloured formazan, in cell work by metabolically active cells.

Test [2] relates to NCI-H358 cells (KRAS G12C). The experiment in a line: Cell viability assay (Cell Counting Kit-8, 3-day). In kind it is cell-based, human. As to conditions: Homo sapiens, NCI-H358, 72 h, NCI-H358, 72 hrs incubation. A digest of the protocol:
as §1

The subject of test [3] is SW620 cells (KRAS G12V). The experiment in a line: Cell viability assay (Cell Counting Kit-8, 3-day). In kind it is cell-based, human. To be noted: Homo sapiens, SW-620; SW620, 72 hrs incubation. A digest of the protocol: as §1
In test [4] the target is KRAS G12C-BRAF complex (Homo sapiens (Human), UniProt P01116+P62937, G12C). The test can be described thus: KRAS-BRAF with CYPA (500 nM) interaction assay (TR-FRET, Example 136). As to conditions: KRAS G12C-BRAF disruption. In kind it is biochemical. On the technique in general: TR-FRET usually uses a lanthanide donor and a delayed reading to cut background.
Test [5] deals with phosphorylation of ERK, KRAS G12C in NCI-H358 cells. The experiment in a line: pERK inhibition assay. In kind it is cell-based. As to conditions: Homo sapiens, NCI-H358, 4 h. The procedure, abridged: (§2)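 Cells in RPMI-1640 with 10% FBS were plated overnight (30,000/well H358, 20,000 AGS, 30,000 SW620) and treated 4 h with compounds at 0.5% DMSO. After formaldehyde fixation and methanol permeabilization, pERK was detected by in-cell ELISA with HRP secondary and TMB (OD450); IC50 from 4-parameter fit.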

Test [6] relates to phosphorylation of ERK, KRAS G12D in AGS cells. The test can be described thus: pERK inhibition assay. In kind it is cell-based. To be noted: Homo sapiens, AGS, 4 h. A digest of the protocol:
as §2

The test system of test [7] is phosphorylation of ERK, KRAS G12V in SW620. The test can be described thus: pERK inhibition assay. The format is cell-based. As to conditions: Homo sapiens, SW-620, 4 h, SW620 cells. A digest of the protocol: as §2

KRAS G12C-BRAF complex, sequence (P01116-2 other isoform, or with tags, fused parts or gaps G12C): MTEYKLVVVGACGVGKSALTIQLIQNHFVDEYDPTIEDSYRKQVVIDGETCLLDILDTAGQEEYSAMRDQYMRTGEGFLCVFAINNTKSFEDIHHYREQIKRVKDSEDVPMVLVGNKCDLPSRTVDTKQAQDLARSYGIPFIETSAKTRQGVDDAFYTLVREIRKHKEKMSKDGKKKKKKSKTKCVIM
KRAS G12C-BRAF complex, sequence (P62937 whole entry): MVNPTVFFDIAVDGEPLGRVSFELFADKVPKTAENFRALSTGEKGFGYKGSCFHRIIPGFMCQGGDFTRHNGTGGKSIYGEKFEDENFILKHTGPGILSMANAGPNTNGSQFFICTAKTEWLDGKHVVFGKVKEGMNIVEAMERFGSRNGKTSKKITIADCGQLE

`CO[C@@H](C)c1ncc(N2CCN(C)CC2)cc1-c1c2c3cc(cc4c3n1CCO4)-c1csc(n1)C[C@H](NC(=O)[C@H]1C[C@@H]1c1cncnc1)C(=O)N1CCC[C@H](N1)C(=O)OCC(C)(C)C2` (atropisomer, axis not shown; (M)) [Example 93, (1S,2S)-N-[(7S,13S)-(20M)-20-[2-[(1S)-1-methoxyethyl]-5-(4-methylpiperazin-1-yl)-3-pyridyl]-17,17-dimethyl-8,14-dioxo-15,24-dioxa-4-thia-9,21,30,31-tetrazahexacyclo[23.3.1.1^2,5.1^9,13.0^19,27.0^21,26]hentriaconta-1 (28),2,5 (31), 19,25 (29),26-hexaen-7-yl]-2-pyrimidin-5-yl-cyclopropanecarboxamide]: the IC50 (commonly the point on the concentration scale where inhibition reaches its midpoint) came to 5 nM in test [1]; 3 nM in test [2]; 1 nM in test [3]; 14.8 nM in test [4]; 1.2 nM in test [5]; 3.5 nM in test [6]. In test [7], this compound had an IC50 of 1.2 nM.
On to `CO[C@@H](C)c1ncc(N2CCOCC2)cc1-c1c2c3cc(cc4c3n1CCC4)-c1csc(n1)C[C@H](NC(=O)[C@H]1C[C@@H]1c1cncnc1)C(=O)N1CCC[C@H](N1)C(=O)OCC(C)(C)C2` (atropisomer, axis not shown; (M)) [Example 94, (1S,2S)-N-[(7S,13S)-(20M)-20-[2-[(1S)-1-methoxyethyl]-5-morpholino-3-pyridyl]-17,17-dimethyl-8,14-dioxo-15-oxa-4-thia-9,21,30,31-tetrazahexacyclo[23.3.1.1^2,5.1^9,13.0^19,27.0^21,26]hentriaconta-1 (28),2,5 (31),19,25 (29),26-hexaen-7-yl]-2-pyrimidin-5-yl-cyclopropanecarboxamide], for which the IC50 in test [1] stood at 6.9 nM; in test [2] it was 2.3 nM; in test [3] it was 0.5 nM; in test [4], 6.9 nM; in test [5] it was 0.4 nM; in test [6], 2.4 nM. The same compound registered a half-maximal inhibitory concentration (IC50) in test [7] of 0.4 nM.
Consider `CO[C@@H](C)c1ncc(N2CCN(C)CC2)cc1-c1c2c3cc(cc4c3n1CC(F)(F)C4)-c1csc(n1)C[C@H](NC(=O)[C@H]1C[C@@H]1c1cncnc1)C(=O)N1CCC[C@H](N1)C(=O)OCC(C)(C)C2` (atropisomer, axis not shown; (M)) [Example 95], for which the IC50 in test [1] is 8.7 nM; in test [2], 4 nM; in test [3], 1.3 nM; in test [4], 13.7 nM; in test [5], 0.5 nM; in test [6], 3.4 nM. The compound further showed an IC50 in test [7] of 0.4 nM.
Turning to `CO[C@@H](C)c1ncc(N2CCN(C)CC2)cc1-c1c2c3cc(cc4c3n1CCO4)-c1csc(n1)C[C@H](NC(=O)[C@H]1C[C@@H]1c1cccnc1)C(=O)N1CCC[C@H](N1)C(=O)OCC(C)(C)C2` (atropisomer, axis not shown; (M)) [Example 96, (1S,2S)-N-[(7S,13S)-(20M)-20-[2-[(1S)-1-methoxyethyl]-5-(4-methylpiperazin-1-yl)-3-pyridyl]-17,17-dimethyl-8,14-dioxo-15,24-dioxa-4-thia-9,21,30,31-tetrazahexacyclo[23.3.1.1^2,5.1^9,13.0^19,27.0^21,26]hentriaconta-1 (28),2,5 (31),19,25 (29),26-hexaen-7-yl]-2-(3-pyridyl)cyclopropanecarboxamide], the IC50 in test [1] worked out at 1.7 nM; in test [2] it was 1 nM; in test [3], 0.2 nM; in test [4], 9.4 nM; in test [5], 0.4 nM; in test [6], 1.2 nM. In addition, the midpoint of inhibition in test [7], the IC50, lay at 0.4 nM.
On to `CO[C@@H](C)c1ncc(N2CCOCC2)cc1-c1c2c3cc(cc4c3n1CCO4)-c1csc(n1)C[C@H](NC(=O)[C@H]1C[C@@H]1c1cccnc1)C(=O)N1CCC[C@H](N1)C(=O)OCC(C)(C)C2` (atropisomer, axis not shown; (M)) [Example 97, (1S,2S)-N-[(7S,13S)-(20M)-20-[2-[(1S)-1-methoxyethyl]-5-morpholino-3-pyridyl]-17,17-dimethyl-8,14-dioxo-15,24-dioxa-4-thia-9,21,30,31-tetrazahexacyclo[23.3.1.12.19,13 019,27 21,26,]hentriaconta-1 (28),2,5 (31), 19,25 (29),26-hexaen-7-yl]-2-(3-pyridyl)cyclopropanecarboxamide], for which the IC50 amounted to 2.6 nM in test [1]; 1.9 nM in test [2]; 0.3 nM in test [3]; 14.4 nM in test [4]; 0.4 nM in test [5]; 1.4 nM in test [6]. This compound also displayed an IC50 in test [7] of 0.3 nM.
With `CO[C@@H](C)c1ncc(N2CCN(CC(F)(F)F)CC2)cc1-c1c2c3cc(cc4c3n1CCO4)-c1csc(n1)C[C@H](NC(=O)[C@H]1C[C@@H]1c1cccnc1)C(=O)N1CCC[C@H](N1)C(=O)OCC(C)(C)C2` (atropisomer, axis not shown; (M)) [Example 98, (1S,2S)-N-[(7S,13S)-(20M)-20-[2-[(1S)-1-methoxyethyl]-5-[4-(2,2,2-trifluoroethyl)piperazin-1-yl]-3-pyridyl]-17,17-dimethyl-8,14-dioxo-15,24-dioxa-4-thia-9,21,30,31-2,5 9,13 19,27 21,26]hentriaconta-1 (28),2,5 (31),19,25 (29),26-hexaen-tetrazahexacyclo[23.3.1.1″>0.1″>7-yl]-2-(3-pyridyl)cyclopropanecarboxamide], the half-maximal inhibitory concentration (IC50) in test [1] was determined as 8.1 nM; in test [2], 4 nM; in test [3], 0.6 nM; in test [4], 11.1 nM; in test [5], 0.9 nM; in test [6], 4.6 nM. In addition, the IC50 in test [7] came to 0.5 nM.
With `CO[C@@H](C)c1ncc(N2CCN(C)CC2)cc1-c1c2c3cc(cc4c3n1CCC4)-c1csc(n1)C[C@H](NC(=O)[C@H]1C[C@@H]1c1cnccn1)C(=O)N1CCC[C@H](N1)C(=O)OCC(C)(C)C2` (atropisomer, axis not shown; (M)) [Example 99, (1S,2S)-N-[(7S,13S)-(20M)-20-[2-[(1S)-1-methoxyethyl]-5-(4-methylpiperazin-1-yl)-3-pyridyl]-17,17-dimethyl-8,14-dioxo-15-oxa-4-thia-9,21,30,31-tetrazahexacyclo[23.3.1.1^2,5.1^9,13.0^19,27.0^21,26]hentriaconta-1 (28),2,5 (31), 19,25 (29),26-hexaen-7-yl]-2-pyrazin-2-yl-cyclopropanecarboxamide], the 50% inhibitory concentration (IC50) in test [1] was 7.8 nM; in test [2] it was 2.1 nM; in test [3], 0.4 nM; in test [4] it was 12.6 nM; in test [5] it was 0.5 nM; in test [6], 1.9 nM. This compound also had a half-maximal inhibitory concentration (IC50) in test [7] of 0.4 nM.
As to `CO[C@@H](C)c1ncc(N2CCN(C)CC2)cc1-c1c2c3cc(cc4c3n1CCCO4)-c1csc(n1)C[C@H](NC(=O)[C@H]1[C@H](C)[C@@H]1C)C(=O)N1CCC[C@H](N1)C(=O)OCC(C)(C)C2` (atropisomer, axis not shown; (M)) [Example 100, (1r,2R,3S)-N-[(7S,13S)-(20M)-20-[2-[(1S)-1-methoxyethyl]-5-(4-methylpiperazin-1-yl)-3-pyridyl]-17,17-dimethyl-8,14-dioxo-15,25-dioxa-4-thia-9,21,31,32-tetrazahexacyclo[24.3.1.1^2,5.1^9,13.0^19,28.0^21,27]dotriaconta-1 (29),2,5 (32),19,26 (30),27-hexaen-7-yl]-2,3-dimethyl-cyclopropanecarboxamide], the IC50 was found to be 8.2 nM in test [1]; 2.7 nM in test [2]; 0.7 nM in test [3]; 33.1 nM in test [4]; 1 nM in test [5]; 4.1 nM in test [6]. This compound came in with an IC50 in test [7] of 0.7 nM.
On to `CO[C@@H](C)c1ncc(N2CCN3CCCC[C@@H]3C2)cc1-c1c2c3cc(cc4c3n1CCC4)-c1csc(n1)C[C@H](NC(=O)[C@H]1[C@H](C)[C@@H]1C)C(=O)N1CCC[C@H](N1)C(=O)OCC(C)(C)C2` (atropisomer, axis not shown; (M)) [Example 101, (1r,2S,3R)-N-[(7S,13S)-(20M)-20-[5-[(9αR)-1,3,4,6,7,8,9,9a-octahydropyrido[1,2-a]pyrazin-2-yl]-2-[(1S)-1-methoxyethyl]-3-pyridyl]-17,17-dimethyl-8,14-dioxo-15-oxa-4-thia-9,21,30,31-tetrazahexacyclo[23.3.1.1^2,5.1^9,13.0^19,27.0^21,26]hentriaconta-1 (28),2,5 (31),19,25 (29),26-hexaen-7-yl]-2,3-dimethyl-cyclopropanecarboxamide], for which the IC50 in test [1] turned out to be 6.9 nM; in test [2] it was 1.8 nM; in test [3] it was 0.3 nM; in test [4], 5.4 nM; in test [5] it was 0.9 nM; in test [6] it was 2.6 nM. Half-maximal inhibition in test [7] (IC50) required 0.2 nM.
